Laboratory results: patent US20120270237A9, “METHODS FOR THE IDENTIFICATION OF KINASE INTERACTING MOLECULES AND FOR THE PURIFICATION OF KINASE PROTEINS” (Cellzone AG, priority 2009, published 2012)

What was measured:
[1] = target: T1, NEK6 (Homo sapiens, UniProt Q9HC98); assay: Kinobeads competition binding, L-363 cell lysate; conditions: 10 μM free compound, L-363 lysate
T1 construct: capturing and identification of kinases from L-363 cell lysate; endogenous in cells; host or cells: L-363 (DSMZ ACC49), treated with MG132 before harvest
T1 sequence (Q9HC98 whole entry): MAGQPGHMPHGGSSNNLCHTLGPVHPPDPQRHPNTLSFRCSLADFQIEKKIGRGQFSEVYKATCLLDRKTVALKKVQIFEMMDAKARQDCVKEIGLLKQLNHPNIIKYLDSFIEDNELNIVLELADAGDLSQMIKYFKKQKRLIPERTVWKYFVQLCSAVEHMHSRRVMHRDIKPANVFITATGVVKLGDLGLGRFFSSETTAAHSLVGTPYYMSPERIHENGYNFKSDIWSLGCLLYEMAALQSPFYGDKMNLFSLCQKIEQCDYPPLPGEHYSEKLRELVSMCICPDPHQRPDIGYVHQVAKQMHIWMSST
Method: (§1) To one aliquot of cell lysate 10 μM of the free compound (FIG. 3, CZC31326) was added and allowed to bind to proteins in the lysate. Then the affinity matrix with the immobilized compound was added to capture proteins that were not interacting with the previously added free compound. Beads were separated from the lysate and bead bound proteins were eluted in SDS sample buffer and subsequently separated by SDS-Polyacrylamide gel electrophoresis (FIG. 8). Suitable gel bands were cut out and subjected to in-gel proteolytic digestion with trypsin. The second lysate aliquot was processed identically, however no free compound was added (DMSO solvent control). Peptides originating from samples 1 and 2 were labeled with iTRAQ reagents (iTRAQ 114 and iTRAQ 117) and the combined samples were analyzed with a nano-flow liquid chromatography system coupled online to a tandem mass spectrometer (LC-MS/MS) experiment followed by iTRAQ reporter ion quantification in the MS/MS spectra as described in Example 2.
(§2) For this experiment the human plasma cell leukaemia line L-363 was used (German Collection of Microorganisms and Cell Cultures, DSMZ number ACC49, Braunschweig, Germany). Cells were treated for three hours with 20 μM of the proteasome inhibitor MG132 (Z-Leu-Leu-Leu-al, Sigma C2211) prior to cell harvesting.

[2] = target: T2, ULK1 (Homo sapiens, UniProt O75385); assay: Kinobeads competition binding, L-363 cell lysate; conditions: 10 μM free compound, L-363 lysate
T2 construct: endogenous in cells; host or cells: L-363 (DSMZ ACC49), treated with MG132 before harvest
T2 sequence (O75385 whole entry): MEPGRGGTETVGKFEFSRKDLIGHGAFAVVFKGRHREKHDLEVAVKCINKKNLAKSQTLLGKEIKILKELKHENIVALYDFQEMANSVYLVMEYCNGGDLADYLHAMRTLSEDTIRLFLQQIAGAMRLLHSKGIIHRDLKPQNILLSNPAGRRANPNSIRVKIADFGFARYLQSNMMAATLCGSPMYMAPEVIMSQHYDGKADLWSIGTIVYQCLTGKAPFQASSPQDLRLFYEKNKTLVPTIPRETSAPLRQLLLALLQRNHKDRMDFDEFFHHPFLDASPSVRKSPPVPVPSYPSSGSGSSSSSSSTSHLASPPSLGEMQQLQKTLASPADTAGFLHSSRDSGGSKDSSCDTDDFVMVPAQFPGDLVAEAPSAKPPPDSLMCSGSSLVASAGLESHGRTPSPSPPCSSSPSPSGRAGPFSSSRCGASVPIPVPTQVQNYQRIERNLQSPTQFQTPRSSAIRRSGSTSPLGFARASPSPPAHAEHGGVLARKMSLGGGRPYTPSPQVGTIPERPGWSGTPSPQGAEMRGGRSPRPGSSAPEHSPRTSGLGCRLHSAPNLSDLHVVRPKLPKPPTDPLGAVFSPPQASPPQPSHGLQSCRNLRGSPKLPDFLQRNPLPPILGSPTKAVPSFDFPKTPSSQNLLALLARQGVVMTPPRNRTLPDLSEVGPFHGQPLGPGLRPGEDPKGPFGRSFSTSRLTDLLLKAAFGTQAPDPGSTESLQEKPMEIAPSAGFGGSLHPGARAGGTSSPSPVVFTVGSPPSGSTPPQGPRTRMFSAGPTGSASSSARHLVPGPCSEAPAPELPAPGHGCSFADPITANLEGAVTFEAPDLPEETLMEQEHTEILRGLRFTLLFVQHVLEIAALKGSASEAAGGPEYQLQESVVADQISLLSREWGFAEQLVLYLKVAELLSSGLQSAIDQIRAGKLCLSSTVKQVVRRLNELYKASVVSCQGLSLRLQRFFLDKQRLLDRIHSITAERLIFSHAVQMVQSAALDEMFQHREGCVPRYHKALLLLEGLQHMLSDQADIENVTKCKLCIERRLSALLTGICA
Method: as §1, §2

[3] = target: T3, INSR (Homo sapiens, UniProt P06213); assay: Kinobeads competition binding, L-363 cell lysate; conditions: 10 μM free compound, L-363 lysate
T3 construct: capturing and identification of kinases from L-363 cell lysate; endogenous in cells; host or cells: L-363 (DSMZ ACC49), treated with MG132 before harvest
T3 sequence (P06213 28-1382): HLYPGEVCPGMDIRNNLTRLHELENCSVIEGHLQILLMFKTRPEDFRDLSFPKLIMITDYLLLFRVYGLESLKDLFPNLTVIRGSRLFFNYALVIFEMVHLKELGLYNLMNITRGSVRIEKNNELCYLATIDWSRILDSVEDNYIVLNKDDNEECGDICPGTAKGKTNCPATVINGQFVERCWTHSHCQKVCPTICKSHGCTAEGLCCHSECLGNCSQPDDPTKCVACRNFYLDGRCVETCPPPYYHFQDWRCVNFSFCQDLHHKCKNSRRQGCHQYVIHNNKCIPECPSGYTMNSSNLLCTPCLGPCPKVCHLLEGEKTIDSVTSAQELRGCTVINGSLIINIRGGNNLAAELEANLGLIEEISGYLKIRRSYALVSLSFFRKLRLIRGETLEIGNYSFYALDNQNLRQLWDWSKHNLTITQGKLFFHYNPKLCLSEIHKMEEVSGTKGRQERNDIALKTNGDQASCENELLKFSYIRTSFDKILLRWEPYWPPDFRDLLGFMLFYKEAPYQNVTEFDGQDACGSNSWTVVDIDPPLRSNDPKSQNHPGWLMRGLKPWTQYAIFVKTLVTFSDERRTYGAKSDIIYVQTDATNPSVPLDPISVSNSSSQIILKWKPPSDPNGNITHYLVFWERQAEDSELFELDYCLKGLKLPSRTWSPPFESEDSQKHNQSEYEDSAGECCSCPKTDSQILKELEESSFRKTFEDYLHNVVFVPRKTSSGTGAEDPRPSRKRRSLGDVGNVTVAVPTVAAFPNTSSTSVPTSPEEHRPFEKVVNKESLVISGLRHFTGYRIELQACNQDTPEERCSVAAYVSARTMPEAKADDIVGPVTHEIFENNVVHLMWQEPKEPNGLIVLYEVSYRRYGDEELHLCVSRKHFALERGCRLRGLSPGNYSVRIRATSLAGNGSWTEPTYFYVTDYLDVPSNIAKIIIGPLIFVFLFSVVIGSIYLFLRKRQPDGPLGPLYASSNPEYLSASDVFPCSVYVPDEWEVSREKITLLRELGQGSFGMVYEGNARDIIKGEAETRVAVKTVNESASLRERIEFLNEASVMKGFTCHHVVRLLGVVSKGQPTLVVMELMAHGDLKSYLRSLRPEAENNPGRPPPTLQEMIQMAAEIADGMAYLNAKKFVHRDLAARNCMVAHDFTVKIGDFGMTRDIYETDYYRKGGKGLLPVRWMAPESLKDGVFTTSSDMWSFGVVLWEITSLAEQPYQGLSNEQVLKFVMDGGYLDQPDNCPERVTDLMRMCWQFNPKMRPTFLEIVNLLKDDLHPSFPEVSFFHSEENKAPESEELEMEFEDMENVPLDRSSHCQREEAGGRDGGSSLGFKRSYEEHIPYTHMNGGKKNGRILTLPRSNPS
Method: as §1, §2

[4] = target: T4, NEK7 (Homo sapiens, UniProt Q8TDX7); assay: Kinobeads competition binding, L-363 cell lysate; conditions: 10 μM free compound, L-363 lysate
T4 construct: capturing and identification of kinases from L-363 cell lysate; endogenous in cells; host or cells: L-363 (DSMZ ACC49), treated with MG132 before harvest
T4 sequence (Q8TDX7 whole entry): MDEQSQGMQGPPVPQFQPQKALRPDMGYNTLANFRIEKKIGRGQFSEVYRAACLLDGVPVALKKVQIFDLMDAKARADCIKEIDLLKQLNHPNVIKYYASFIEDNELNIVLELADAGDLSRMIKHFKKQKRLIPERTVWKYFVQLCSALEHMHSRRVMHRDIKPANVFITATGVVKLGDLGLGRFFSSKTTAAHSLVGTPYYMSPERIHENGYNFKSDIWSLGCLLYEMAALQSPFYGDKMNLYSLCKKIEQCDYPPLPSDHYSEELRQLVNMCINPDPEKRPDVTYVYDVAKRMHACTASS
Method: as §1, §2

[5] = target: STK33 (Homo sapiens, UniProt Q9BYT3); assay: Kinobeads competition binding, HL60 cell lysate; parameters: endogenous in cells; conditions: 10 μM free compound
Chain of STK33 (Q9BYT3 whole entry): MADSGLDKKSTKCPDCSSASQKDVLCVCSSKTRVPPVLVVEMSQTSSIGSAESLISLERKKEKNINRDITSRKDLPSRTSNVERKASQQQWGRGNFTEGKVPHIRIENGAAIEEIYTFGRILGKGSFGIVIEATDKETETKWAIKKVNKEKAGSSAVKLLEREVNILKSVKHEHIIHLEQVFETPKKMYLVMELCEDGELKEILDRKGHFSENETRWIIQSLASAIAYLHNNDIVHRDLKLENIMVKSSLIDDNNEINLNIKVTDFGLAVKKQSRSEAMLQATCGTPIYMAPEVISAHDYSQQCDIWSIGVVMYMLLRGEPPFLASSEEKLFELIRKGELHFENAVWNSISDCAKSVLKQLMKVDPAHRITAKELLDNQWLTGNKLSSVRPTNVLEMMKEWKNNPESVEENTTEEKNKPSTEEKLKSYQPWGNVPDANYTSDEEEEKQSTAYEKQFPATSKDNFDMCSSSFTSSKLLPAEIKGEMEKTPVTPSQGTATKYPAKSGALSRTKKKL
Method in brief: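 Free compound 10 μM → HL60 lysate; affinity matrix with same compound immobilized, 2 h 4 °C; SDS elution, SDS-PAGE, in-gel trypsin; iTRAQ 114/117 labels vs 0.5% DMSO control; nano-LC-MS/MS, reporter-ion quantitation.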

[6] = target: Erk1 (Homo sapiens, UniProt P27361); assay: Kinobeads competition binding, HL60 cell lysate; parameters: endogenous in cells; host or cells: HL60 (DSMZ ACC3); conditions: 10 μM free compound
Chain of Erk1 (P27361 whole entry): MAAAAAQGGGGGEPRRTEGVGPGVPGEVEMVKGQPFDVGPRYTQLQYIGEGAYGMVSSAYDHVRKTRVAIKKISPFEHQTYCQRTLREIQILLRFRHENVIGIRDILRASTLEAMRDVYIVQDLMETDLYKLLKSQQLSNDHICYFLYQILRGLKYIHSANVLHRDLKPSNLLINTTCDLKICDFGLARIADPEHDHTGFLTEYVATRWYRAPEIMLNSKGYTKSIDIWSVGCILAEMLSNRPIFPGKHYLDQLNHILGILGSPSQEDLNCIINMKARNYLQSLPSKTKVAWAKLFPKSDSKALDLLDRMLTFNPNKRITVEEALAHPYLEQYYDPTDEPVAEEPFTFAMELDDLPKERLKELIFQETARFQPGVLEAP
Method: (§3) To one aliquot of cell lysate 10 μM of the free compound (FIG. 3, CZC31326) was added and allowed to bind to proteins in the lysate. Then the affinity matrix with the immobilized compound (Example 1) was added to capture proteins that were not interacting with the previously added free compound. Beads were separated from the lysate and bead bound proteins were eluted in SDS sample buffer and subsequently separated by SDS-Polyacrylamide gel electrophoresis (FIG. 4). Suitable gel bands were cut out and subjected to in-gel proteolytic digestion with trypsin. The second lysate aliquot was processed identically, however no free compound was added (DMSO solvent control). Peptides originating from samples 1 and 2 were labeled with iTRAQ reagents (iTRAQ 114 and iTRAQ 117) and the combined samples were analyzed with a nano-flow liquid chromatography system coupled online to a tandem mass spectrometer (LC-MS/MS) experiment followed by iTRAQ reporter ion quantification in the MS/MS spectra (Ross et al., 2004. Mol. Cell. Proteomics 3(12):1154-1169). Further experimental protocols can be found in WO2006/134056 and a previous publication (Bantscheff et al., 2007. Nature Biotechnology 25, 1035-1044). Sepharose-beads with the immobilized compound (100 μl beads per pull-down experiment) were equilibrated in lysis buffer and incubated with a cell lysate sample containing 50 mg of protein on an end-over-end shaker (Roto Shake Genie, Scientific Industries Inc.) for 2 hours at 4° C. […] The iTRAQ reagents are a set of multiplexed, amine-specific, stable isotope reagents that can label peptides on amino groups in up to four different biological samples enabling simultaneous identification and quantitation of peptides. […] Relative protein quantitation was performed using peak areas of iTRAQ reporter ion signals essentially as described in an earlier publication (Bantscheff et al., 2007. Nature Biotechnology 25, 1035-1044).

[7] = target: FER (Homo sapiens, UniProt P16591); assay: Kinobeads competition binding, HL60 cell lysate; parameters: endogenous in cells; host or cells: HL60 (DSMZ ACC3); conditions: 10 μM free compound
Chain of FER (P16591 whole entry): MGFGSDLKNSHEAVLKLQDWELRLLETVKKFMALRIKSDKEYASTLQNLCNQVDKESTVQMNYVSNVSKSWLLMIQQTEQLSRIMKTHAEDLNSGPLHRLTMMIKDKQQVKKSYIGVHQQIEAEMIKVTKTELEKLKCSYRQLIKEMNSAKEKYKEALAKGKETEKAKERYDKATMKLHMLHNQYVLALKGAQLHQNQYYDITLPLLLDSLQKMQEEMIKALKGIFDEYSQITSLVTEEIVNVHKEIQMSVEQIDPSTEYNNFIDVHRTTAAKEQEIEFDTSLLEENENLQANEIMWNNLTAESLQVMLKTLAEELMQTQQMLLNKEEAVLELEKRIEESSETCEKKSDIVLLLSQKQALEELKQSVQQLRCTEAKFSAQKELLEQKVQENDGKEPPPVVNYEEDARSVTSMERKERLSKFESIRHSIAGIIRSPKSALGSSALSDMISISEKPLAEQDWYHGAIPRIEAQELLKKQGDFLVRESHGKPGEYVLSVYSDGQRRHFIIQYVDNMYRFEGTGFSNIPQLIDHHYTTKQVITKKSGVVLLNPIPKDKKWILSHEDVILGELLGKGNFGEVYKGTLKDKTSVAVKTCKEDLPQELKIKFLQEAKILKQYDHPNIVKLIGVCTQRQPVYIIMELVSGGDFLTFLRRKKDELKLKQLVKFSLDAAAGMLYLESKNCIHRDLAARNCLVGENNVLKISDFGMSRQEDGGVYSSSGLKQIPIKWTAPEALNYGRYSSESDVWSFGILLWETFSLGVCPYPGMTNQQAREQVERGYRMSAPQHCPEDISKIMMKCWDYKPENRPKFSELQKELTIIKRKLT
Method: as §3

[8] = target: DNAPK (Homo sapiens, UniProt P78527); assay: Kinobeads competition binding, HL60 cell lysate; parameters: endogenous in cells; host or cells: HL60 (DSMZ ACC3); conditions: 10 μM free compound
Method: as §3

inhibition at 10 µM [1]: 83.7%
Competition % [2]: 96.5%
inhibition at 10 µM [3]: 90.1%
inhibition at 10 µM [4]: 93.9%
inhibition at 10 µM [5]: 96.9%
inhibition at 10 µM [6]: 84.8%
inhibition at 10 µM [7]: 97.7%
inhibition at 10 µM [8]: 75.5%
SMILES: CS(=O)(=O)Nc1ccccc1Nc1nc(Nc2cccc(OCCN)c2)ncc1Cl [CZC31326, N-(2-(2-(3-(2-aminoethoxy)phenylamino)-5-chloropyrimidin-4-ylamino)phenyl)methanesulfonamide]
